Laboratory results published in the supplement of paper PMC11061612.

Columns and labels:
Assay in all cases: combination Emax (second highest fraction inhibited in the dose matrix, 72 h); higher = more inhibition; extreme values may be limits of the assay
[1] = tested on: LB831-BLC (Bladder Carcinoma)
Method in brief: (§1)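 After 24 hours at 37°C and 5% CO2 in 1536-well plates, cells in DMEM/F12 or RPMI plus 10% FBS received two-drug dose matrices for 72 hours. Viability came from CellTiter-Glo 2.0 luminescence and was scaled as inhibition, anchored at 0 by vehicle wells and at 1 by blank wells. Combination Emax is taken as the second-highest inhibition in the matrix, and Bliss excess as the observed combination effect less EA + EB − EA·EB, with EA and EB the single-agent effects.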

[2] = tested on: MFE-296 (Endometrial Carcinoma)
Method in brief: as §1

[3] = tested on: OVCA420 (Ovarian Carcinoma)
Method in brief: as §1

NOS-1 (Osteosarcoma) = tested on: NOS-1 (Osteosarcoma)
Method in brief: as §1

[4] = tested on: CaR-1 (Colorectal Carcinoma)
Method in brief: as §1

KELLY (Neuroblastoma) = tested on: KELLY (Neuroblastoma)
Method in brief: as §1

NB10 (Neuroblastoma) = tested on: NB10 (Neuroblastoma)
Method in brief: as §1

[5] = tested on: KYSE-520 (Esophageal Squamous Cell Carcinoma)
Method in brief: as §1

[6] = tested on: NCI-H82 (Small Cell Lung Carcinoma)
Method in brief: as §1

[7] = tested on: COLO-205 (Colorectal Carcinoma)
Method in brief: as §1

[8] = tested on: LU-135 (Small Cell Lung Carcinoma)
Method in brief: as §1

[9] = tested on: EC-GI-10 (Esophageal Squamous Cell Carcinoma)
Method in brief: as §1

COc1cc2c(cc1OCCCCCOc1cc3c(cc1OC)C(=O)N1C=C(C)C[C@H]1C=N3)N=C[C@@H]1CC(C)=CN1C2=O [SG3199] + O=C(c1cc(Cc2n[nH]c(=O)c3ccccc23)ccc1F)N1CCN(C(=O)C2CC2)CC1 [Olaparib] (first compound max 0.001 µM, 7x7, partner max 10 µM)
combination Emax [1]: 0.159 | combination Emax [2]: 0.0449 | combination Emax [3]: 0.0795 | combination Emax (NOS-1 (Osteosarcoma)): 0.155 | combination Emax [4]: 0.0995 | combination Emax (KELLY (Neuroblastoma)): 0.375 | combination Emax (NB10 (Neuroblastoma)): 0.348 | combination Emax [5]: 0.133 | combination Emax [6]: 0.323 | combination Emax [7]: 0.0813 | combination Emax [8]: 0.354 | combination Emax [9]: 0.198

CCc1c2c(nc3ccc(O)cc13)-c1cc3c(c(=O)n1C2)COC(=O)[C@]3(O)CC [SN-38] + CN(C)CCCOc1ccc(-c2ccc3ncc4c(c3c2)n(C2CCOCC2)c(=O)n4C)cn1 [AZD0156] (first compound max 0.3 µM, 7x7, partner max 1 µM)
combination Emax [1]: 0.723 | combination Emax [2]: 0.496 | combination Emax [3]: 0.171 | combination Emax (NOS-1 (Osteosarcoma)): 0.0879 | combination Emax [4]: 0.876 | combination Emax (KELLY (Neuroblastoma)): 0.869 | combination Emax (NB10 (Neuroblastoma)): 0.829 | combination Emax [5]: 0.284 | combination Emax [6]: 0.824 | combination Emax [7]: 0.509 | combination Emax [8]: 0.728 | combination Emax [9]: 0.776

C[C@@H](c1ccc2nccn2c1)n1nnc2ncc(-c3cnn(C)c3)nc21 [Savolitinib] + CC1(C)CCC(CN2CCN(c3ccc(C(=O)NS(=O)(=O)c4ccc(NCC5CCOCC5)c([N+](=O)[O-])c4)c(Oc4cnc5[nH]ccc5c4)c3)CC2)=C(c2ccc(Cl)cc2)C1 [Venetoclax] (first compound max 1 µM, 7x7, partner max 1 µM)
combination Emax [1]: 0.179 | combination Emax [2]: 0.0764 | combination Emax [3]: 0.0542 | combination Emax (NOS-1 (Osteosarcoma)): 0.0631 | combination Emax [4]: 0.171 | combination Emax (KELLY (Neuroblastoma)): 0.357 | combination Emax (NB10 (Neuroblastoma)): 0.149 | combination Emax [5]: 0.149 | combination Emax [6]: 0.225 | combination Emax [7]: 0.0209 | combination Emax [8]: 0.114 | combination Emax [9]: 0.116

C[C@@H](c1ccc2nccn2c1)n1nnc2ncc(-c3cnn(C)c3)nc21 [Savolitinib] + Cc1c2c(nn1C)CSCc1cc(n(C)n1)CSc1cc(c3ccccc3c1)OCCCc1c(C(=O)O)n(C)c3c-2c(Cl)ccc13 [AZD5991] (first compound max 1 µM, 7x7, partner max 1 µM)
combination Emax [1]: 0.232 | combination Emax [2]: 0.244 | combination Emax [3]: 0.213 | combination Emax (NOS-1 (Osteosarcoma)): 0.742 | combination Emax [4]: 0.154 | combination Emax (KELLY (Neuroblastoma)): 0.805 | combination Emax (NB10 (Neuroblastoma)): 0.202 | combination Emax [5]: 0.189 | combination Emax [6]: 0.875 | combination Emax [7]: 0.0758 | combination Emax [8]: 0.194 | combination Emax [9]: 0.285

Cn1cnc2c(F)c(Nc3ccc(Br)cc3Cl)c(C(=O)NOCCO)cc21 [Selumetinib] + C=CCn1c(=O)c2cnc(Nc3ccc(N4CCN(C)CC4)cc3)nc2n1-c1cccc(C(C)(C)O)n1 [AZD1775] (first compound max 10 µM, partner max 1 µM)
combination Emax [1]: 0.406 | combination Emax [2]: 0.163 | combination Emax [3]: 0.508 | combination Emax (NOS-1 (Osteosarcoma)): 0.818 | combination Emax [4]: 0.288 | combination Emax (KELLY (Neuroblastoma)): 1 | combination Emax (NB10 (Neuroblastoma)): 0.712 | combination Emax [5]: 0.595 | combination Emax [6]: 0.855 | combination Emax [7]: 0.85 | combination Emax [8]: 0.583 | combination Emax [9]: 0.919

Cn1cnc2c(F)c(Nc3ccc(Br)cc3Cl)c(C(=O)NOCCO)cc21 [Selumetinib] + CC(C)n1c(=O)n(C)c2cnc3cc(F)c(-c4ccc(OCCCN5CCCCC5)nc4)cc3c21 [AZD1390] (first compound max 10 µM, 7x7, partner max 0.3 µM)
combination Emax [1]: 0.214 | combination Emax [2]: 0.0966 | combination Emax [3]: 0.436 | combination Emax (NOS-1 (Osteosarcoma)): 0.257 | combination Emax [4]: 0.188 | combination Emax (KELLY (Neuroblastoma)): 0.22 | combination Emax (NB10 (Neuroblastoma)): 0.32 | combination Emax [5]: 0.382 | combination Emax [6]: 0.177 | combination Emax [7]: 0.705 | combination Emax [8]: 0.136 | combination Emax [9]: 0.323

Cn1cnc2c(F)c(Nc3ccc(Br)cc3Cl)c(C(=O)NOCCO)cc21 [Selumetinib] + CCN(CCO)CCCOc1ccc2c(Nc3cc(CC(=O)Nc4cccc(F)c4)[nH]n3)ncnc2c1 [AZD2811] (first compound max 10 µM, 7x7, partner max 1 µM)
combination Emax [1]: 0.226 | combination Emax [2]: 0.125 | combination Emax [3]: 0.493 | combination Emax (NOS-1 (Osteosarcoma)): 0.313 | combination Emax [4]: 0.406 | combination Emax (KELLY (Neuroblastoma)): 0.645 | combination Emax (NB10 (Neuroblastoma)): 0.397 | combination Emax [5]: 0.428 | combination Emax [6]: 0.442 | combination Emax [7]: 0.983 | combination Emax [8]: 0.933 | combination Emax [9]: 0.546

Cn1cnc2c(F)c(Nc3ccc(Br)cc3Cl)c(C(=O)NOCCO)cc21 [Selumetinib] + C[C@@H]1COCCN1C2=NC(=NC(=C2)C3(CC3)[S@](=N)(=O)C)C4=C5C=CNC5=NC=C4 [AZD6738] (first compound max 10 µM, 7x7, partner max 10 µM)
combination Emax [1]: 0.278 | combination Emax [2]: 0.339 | combination Emax [3]: 0.562 | combination Emax (NOS-1 (Osteosarcoma)): 0.784 | combination Emax [4]: 0.395 | combination Emax (KELLY (Neuroblastoma)): 0.952 | combination Emax (NB10 (Neuroblastoma)): 0.916 | combination Emax [5]: 0.534 | combination Emax [6]: 0.756 | combination Emax [7]: 0.76 | combination Emax [8]: 0.753 | combination Emax [9]: 0.647

CC(=O)Nc1cccc(-n2c(=O)n(C3CC3)c(=O)c3c(Nc4ccc(I)cc4F)n(C)c(=O)c(C)c32)c1 [Trametinib] + Cc1nc(-c2cn3c(n2)-c2ccc(-c4cnn(C(C)(C)C(N)=O)c4)cc2OCC3)n(C(C)C)n1 [Taselisib] (first compound max 1 µM, 7x7, partner max 10 µM)
combination Emax [1]: 0.77 | combination Emax [2]: 0.43 | combination Emax [3]: 0.917 | combination Emax (NOS-1 (Osteosarcoma)): 0.928 | combination Emax [4]: 0.776 | combination Emax (KELLY (Neuroblastoma)): 0.47 | combination Emax (NB10 (Neuroblastoma)): 0.921 | combination Emax [5]: 0.846 | combination Emax [6]: 0.243 | combination Emax [7]: 0.946 | combination Emax [8]: 0.514 | combination Emax [9]: 1

CC1(C)CCC(CN2CCN(c3ccc(C(=O)NS(=O)(=O)c4ccc(NCC5CCOCC5)c([N+](=O)[O-])c4)c(Oc4cnc5[nH]ccc5c4)c3)CC2)=C(c2ccc(Cl)cc2)C1 [Venetoclax] + C1CN(CCC1(C(=O)N[C@@H](CCO)C2=CC=C(C=C2)Cl)N)C3=NC=NC4=C3C=CN4 [Capivasertib] (first compound max 1 µM, 7x7, partner max 3 µM)
combination Emax [1]: 0.334 | combination Emax [2]: 0.37 | combination Emax [3]: 0.146 | combination Emax (NOS-1 (Osteosarcoma)): 0.171 | combination Emax [4]: 0.264 | combination Emax (KELLY (Neuroblastoma)): 0.998 | combination Emax (NB10 (Neuroblastoma)): 0.139 | combination Emax [5]: 0.467 | combination Emax [6]: 0.3 | combination Emax [7]: 0.237 | combination Emax [8]: 0.317 | combination Emax [9]: 0.426

CC1(C)CCC(CN2CCN(c3ccc(C(=O)NS(=O)(=O)c4ccc(NCC5CCOCC5)c([N+](=O)[O-])c4)c(Oc4cnc5[nH]ccc5c4)c3)CC2)=C(c2ccc(Cl)cc2)C1 [Venetoclax] + C=CCn1c(=O)c2cnc(Nc3ccc(N4CCN(C)CC4)cc3)nc2n1-c1cccc(C(C)(C)O)n1 [AZD1775] (first compound max 1 µM, partner max 1 µM)
combination Emax [1]: 0.677 | combination Emax [2]: 0.3 | combination Emax [3]: 0.384 | combination Emax (NOS-1 (Osteosarcoma)): 0.675 | combination Emax [4]: 0.246 | combination Emax (KELLY (Neuroblastoma)): 1 | combination Emax (NB10 (Neuroblastoma)): 0.865 | combination Emax [5]: 0.595 | combination Emax [6]: 0.917 | combination Emax [7]: 0.606 | combination Emax [8]: 0.688 | combination Emax [9]: 0.903

CC1(C)CCC(CN2CCN(c3ccc(C(=O)NS(=O)(=O)c4ccc(NCC5CCOCC5)c([N+](=O)[O-])c4)c(Oc4cnc5[nH]ccc5c4)c3)CC2)=C(c2ccc(Cl)cc2)C1 [Venetoclax] + CCN(CCO)CCCOc1ccc2c(Nc3cc(CC(=O)Nc4cccc(F)c4)[nH]n3)ncnc2c1 [AZD2811] (first compound max 1 µM, 7x7, partner max 1 µM)
combination Emax [1]: 0.188 | combination Emax [2]: 0.124 | combination Emax [3]: 0.188 | combination Emax (NOS-1 (Osteosarcoma)): 0.255 | combination Emax [4]: 0.282 | combination Emax (KELLY (Neuroblastoma)): 0.985 | combination Emax (NB10 (Neuroblastoma)): 0.5 | combination Emax [5]: 0.304 | combination Emax [6]: 0.457 | combination Emax [7]: 0.713 | combination Emax [8]: 0.899 | combination Emax [9]: 0.308

CC1(C)CCC(CN2CCN(c3ccc(C(=O)NS(=O)(=O)c4ccc(NCC5CCOCC5)c([N+](=O)[O-])c4)c(Oc4cnc5[nH]ccc5c4)c3)CC2)=C(c2ccc(Cl)cc2)C1 [Venetoclax] + CN(C)CCCOc1ccc(-c2ccc3ncc4c(c3c2)n(C2CCOCC2)c(=O)n4C)cn1 [AZD0156] (first compound max 1 µM, 7x7, partner max 1 µM)
combination Emax [1]: 0.228 | combination Emax [2]: 0.144 | combination Emax [3]: 0.178 | combination Emax (NOS-1 (Osteosarcoma)): 0.194 | combination Emax [4]: 0.145 | combination Emax (KELLY (Neuroblastoma)): 0.976 | combination Emax (NB10 (Neuroblastoma)): 0.538 | combination Emax [5]: 0.181 | combination Emax [6]: 0.343 | combination Emax [7]: 0.237 | combination Emax [8]: 0.274 | combination Emax [9]: 0.221

CC1(C)CCC(CN2CCN(c3ccc(C(=O)NS(=O)(=O)c4ccc(NCC5CCOCC5)c([N+](=O)[O-])c4)c(Oc4cnc5[nH]ccc5c4)c3)CC2)=C(c2ccc(Cl)cc2)C1 [Venetoclax] + COc1cc(Nc2ncc3c(n2)-c2ccc(Cl)cc2C(c2c(F)cccc2OC)=NC3)ccc1C(=O)O [Alisertib] (first compound max 1 µM, 7x7, partner max 10 µM)
combination Emax [1]: 0.456 | combination Emax [2]: 0.225 | combination Emax [3]: 0.326 | combination Emax (NOS-1 (Osteosarcoma)): 0.575 | combination Emax [4]: 0.401 | combination Emax (KELLY (Neuroblastoma)): 0.998 | combination Emax (NB10 (Neuroblastoma)): 0.995 | combination Emax [5]: 0.493 | combination Emax [6]: 0.73 | combination Emax [7]: 0.693 | combination Emax [8]: 0.797 | combination Emax [9]: 0.554

CC1(C)CCC(CN2CCN(c3ccc(C(=O)NS(=O)(=O)c4ccc(NCC5CCOCC5)c([N+](=O)[O-])c4)c(Oc4cnc5[nH]ccc5c4)c3)CC2)=C(c2ccc(Cl)cc2)C1 [Venetoclax] + C[C@@H]1COCCN1C2=NC(=NC(=C2)C3(CC3)[S@](=N)(=O)C)C4=C5C=CNC5=NC=C4 [AZD6738] (first compound max 1 µM, 7x7, partner max 10 µM)
combination Emax [1]: 0.466 | combination Emax [2]: 0.387 | combination Emax [3]: 0.493 | combination Emax (NOS-1 (Osteosarcoma)): 0.67 | combination Emax [4]: 0.484 | combination Emax (KELLY (Neuroblastoma)): 0.998 | combination Emax (NB10 (Neuroblastoma)): 0.849 | combination Emax [5]: 0.575 | combination Emax [6]: 0.86 | combination Emax [7]: 0.344 | combination Emax [8]: 0.761 | combination Emax [9]: 0.608
